Data published in ChEMBL document CHEMBL1145171, “Synthesis, biological evaluation, and molecular modeling investigation of new chiral fibrates with PPARalpha and PPARgamma agonist activity” (J Med Chem, 2005).

Tests used:
[1] = target: T1, Peroxisome proliferator-activated receptor alpha (Homo sapiens, UniProt Q07869); experiment: Effective concentration against human PPARalpha expressed in HepG2 cells; type: cell-based
T1 sequence (Q07869 whole entry): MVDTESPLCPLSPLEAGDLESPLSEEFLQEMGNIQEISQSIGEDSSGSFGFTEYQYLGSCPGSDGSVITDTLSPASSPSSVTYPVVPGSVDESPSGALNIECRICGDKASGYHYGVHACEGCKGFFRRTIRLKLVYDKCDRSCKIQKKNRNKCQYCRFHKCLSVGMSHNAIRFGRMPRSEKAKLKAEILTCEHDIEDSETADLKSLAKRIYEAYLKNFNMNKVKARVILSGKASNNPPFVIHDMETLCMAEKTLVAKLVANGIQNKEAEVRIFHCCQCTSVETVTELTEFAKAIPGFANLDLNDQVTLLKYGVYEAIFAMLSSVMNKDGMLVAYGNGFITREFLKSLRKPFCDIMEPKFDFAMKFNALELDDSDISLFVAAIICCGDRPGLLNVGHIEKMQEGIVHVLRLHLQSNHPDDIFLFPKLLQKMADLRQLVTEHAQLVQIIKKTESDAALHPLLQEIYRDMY

[2] = target: T2, Peroxisome proliferator-activated receptor gamma (Homo sapiens, UniProt P37231)
T2 sequence (P37231 whole entry): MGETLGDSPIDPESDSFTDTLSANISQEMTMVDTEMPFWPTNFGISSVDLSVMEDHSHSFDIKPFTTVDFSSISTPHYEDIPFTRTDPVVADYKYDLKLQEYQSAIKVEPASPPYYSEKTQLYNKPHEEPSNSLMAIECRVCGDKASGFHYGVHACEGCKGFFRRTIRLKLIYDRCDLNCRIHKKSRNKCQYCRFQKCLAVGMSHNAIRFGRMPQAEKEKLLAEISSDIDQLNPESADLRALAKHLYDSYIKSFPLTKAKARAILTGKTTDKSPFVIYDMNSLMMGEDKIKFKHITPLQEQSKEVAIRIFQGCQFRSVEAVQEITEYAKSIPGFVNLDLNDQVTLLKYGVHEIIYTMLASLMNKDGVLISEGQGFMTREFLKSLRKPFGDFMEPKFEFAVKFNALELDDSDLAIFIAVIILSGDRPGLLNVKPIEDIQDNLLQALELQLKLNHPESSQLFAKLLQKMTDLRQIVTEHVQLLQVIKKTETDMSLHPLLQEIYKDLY

[3] = target: T3, Peroxisome proliferator-activated receptor alpha (Homo sapiens) (UniProt Q07869); experiment: Efficacy against human PPARalpha expressed in HepG2 cells relative to Wy-14,643; type: cell-based
T3 sequence (whole entry): T1 sequence (Q07869 whole entry)

[4] = target: T4, Peroxisome proliferator-activated receptor alpha (Mus musculus) (UniProt P23204); experiment: Efficacy against murine PPARalpha relative to Wy-14,643
T4 sequence (whole entry): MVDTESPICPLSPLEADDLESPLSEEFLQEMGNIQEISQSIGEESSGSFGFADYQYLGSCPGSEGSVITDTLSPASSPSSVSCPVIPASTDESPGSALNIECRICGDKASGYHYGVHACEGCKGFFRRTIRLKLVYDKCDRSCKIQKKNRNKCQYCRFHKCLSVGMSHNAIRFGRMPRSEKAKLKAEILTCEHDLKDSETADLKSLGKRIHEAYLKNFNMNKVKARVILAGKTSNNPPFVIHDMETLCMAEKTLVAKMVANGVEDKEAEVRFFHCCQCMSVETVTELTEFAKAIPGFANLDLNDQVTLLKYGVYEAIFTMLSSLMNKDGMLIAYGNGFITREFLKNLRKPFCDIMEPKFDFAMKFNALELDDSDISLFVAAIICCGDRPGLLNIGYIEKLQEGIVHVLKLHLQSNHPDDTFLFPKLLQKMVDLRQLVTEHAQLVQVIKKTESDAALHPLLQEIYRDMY

[5] = target: T5, Peroxisome proliferator-activated receptor alpha (Mus musculus, UniProt P23204); experiment: Effective concentration against murine PPARalpha in transactivation assay
T5 sequence (P23204 whole entry): T4 sequence (whole entry)

[6] = target: T1, Peroxisome proliferator-activated receptor alpha; experiment: Effective concentration against human PPARalpha expressed in HepG2 cells; i.a = inactive at tested concentration; type: cell-based
[7] = target: T2, Peroxisome proliferator-activated receptor gamma; experiment: Effective concentration against human PPARgamma expressed in HepG2 cells; i.a = inactive at tested concentration; type: cell-based

SMILES	EC50 [1]	EC50 [2]	Efficacy [3]	Efficacy [4]	EC50 [5]	EC50 [6]	EC50 [7]
CCC[C@H](Oc1ccc2ccccc2c1)C(=O)O	8.4 µM	7.2 µM	95.6	–	–	–	–
O=C(O)[C@@H](Cc1ccccc1)Oc1ccc(Cl)cc1	10.9 µM	10.5 µM	14.3	–	–	–	–
CN(CCOc1ccc(CC2SC(=O)NC2=O)cc1)c1ccccn1 (centres undefined) [ROSIGLITAZONE]	–	–	–	–	–	Not Active	–
CC(C)(Oc1ccc(Cl)cc1)C(=O)O [CLOFIBRIC ACID]	39.6 µM	309 µM	89.7	67.2	42 µM	–	–
O=C(O)[C@H](Cc1ccccc1)Oc1ccc(CO)cc1	28.7 µM	25.7 µM	38.2	–	–	–	–
O=C(O)[C@H](Cc1ccccc1)Oc1ccc(Cl)cc1	3.9 µM	2.7 µM	99.4	49.1	1.3 µM	–	–
Cc1cccc(Nc2cc(Cl)nc(SCC(=O)O)n2)c1C [PIRINIXIC ACID]	–	–	100	100	–	–	Not Active
CCC[C@@H](OCc1ccc(-c2ccc(Cl)cc2)cc1)C(=O)O	4 µM	5.4 µM	36.6	–	–	–	–
O=C(O)[C@H](Cc1ccccc1)Oc1ccc(-c2ccccc2)cc1	–	–	124	99.3	0.2 µM	–	–
CC(=O)c1ccc(O[C@@H](Cc2ccccc2)C(=O)O)cc1	13.5 µM	12.4 µM	68.3	–	–	–	–

Second part, led by results:

EC50 [1]	EC50 [2]	Efficacy [3]	Efficacy [4]	EC50 [5]	SMILES	EC50 [6]	EC50 [7]
0.7 µM	3.6 µM	114	127	0.35 µM	CCc1ccc(O[C@@H](Cc2ccccc2)C(=O)O)cc1	–	–
3.9 µM	8.9 µM	29.8	–	–	CCC[C@H](OCc1ccc(-c2ccc(Cl)cc2)cc1)C(=O)O	–	–
1.4 µM	1.5 µM	130	–	–	O=C(O)[C@H](Cc1ccccc1)Oc1ccc2ccccc2c1	–	–
2.5 µM	20.1 µM	80.7	–	–	COc1ccc(O[C@@H](Cc2ccccc2)C(=O)O)cc1	–	–
3.9 µM	12.5 µM	10.5	–	–	CCC[C@@H](Oc1ccc2ccccc2c1)C(=O)O	–	–
0.5 µM	0.9 µM	80.7	107	0.27 µM	O=C(O)[C@H](Cc1ccccc1)Oc1ccc(C(F)(F)F)cc1	–	–
0.9 µM	1.6 µM	93.2	70.7	0.15 µM	O=C(O)[C@H](Cc1ccccc1)Oc1ccc(-c2cccs2)cc1	–	–
